| melting point [°C] | Structure (SMILES) |
| --- | --- |
| 181 | CCC(C)COc1ccc(-c2ccc(O)cc2)cc1C#N (stereo not given) |
| 154 to 156 | CCCCn1c(=O)c(NC(=O)Nc2c(C(C)C)cccc2C(C)C)c(-c2cccc(OCCC)c2)c2cccnc21 |
| 59 to 61 | O=C1c2ccccc2OCN1CCO |
| 139 to 140 | CCCCCC1CN(C(=O)c2cc(OC)c(OC)c(OC)c2)CCN1C(=O)c1cc(OC)c(OC)c(OC)c1 (stereo not given) |
| 194 to 195 | c1ccc(C2CNc3c(cnc4ccccc34)O2)cc1 (stereo not given) |
| 71 to 72 | Clc1ccc2c(c1)CCC(c1ccccc1)O2 (stereo not given) |
| 137 to 139 | CCOC(=O)c1cc(C#N)c(C=O)nc1NC |
| 165 to 168 | COc1ccccc1NC(=O)Nc1ccc(CC(=O)O)cc1 |
| 208 to 211 | O=C1c2ccccc2C(=O)c2cc(S(=O)(=O)O)ccc21 |
| 238 to 240 | O=C(c1cccs1)c1cnn2c(-c3cccc(N(C(=O)c4c(Cl)cccc4Cl)C(=O)c4c(Cl)cccc4Cl)c3)ccnc12 |
| 93 to 95 | CC(C)(C)OC(=O)NC1(CCO)CC1 |
| 156 to 158 | CCCCCCCCC1C=CC(/C=C/c2ccc(C(=O)O)o2)=C2N=C3C(=C21)CC(C)(C)CC3(C)C (stereo not given) |
| 149 to 151 | CCNC(=O)OC1CC(C)(C)N(OC(=O)NCC)C(C)(C)C1 |
| 155 | CS(=O)(=O)c1ccc(-c2cc(CO)nn2Cc2ccccc2)cc1 |
| 102 to 104 | CCOC(=O)c1ccc(S(N)(=O)=O)cc1 |
| 298 to 300 | C=C1SC(=O)N(c2ccc3cc(-c4cc5c(c(-c6cccnc6)c4)OCO5)ccc3c2)C1=O |
| 195 to 196 | CCCc1c([C@@H]2C[C@H]2c2ccccc2)oc2ccc(C(=O)O)cc2c1=O (relative stereo) |
| 167 to 170 | COc1ccc(C(=O)O)cc1C#CCN(C)C |
| 121 to 123 | CC(C)(C(=O)O)C(=O)O |
| 157 to 159 | CC1CN(C(=O)c2ccc(Cl)cc2Cl)c2ccc(Cl)cc2C1=O (stereo not given) |
| 75.9 | Cc1c(C=Cc2ccccc2)cccc1[N+](=O)[O-] |
| 164 to 167 | COc1ccc2c(c1)c1c(n2C)C2(C)CCC(=O)N2CC1 (stereo not given) |
| 220 to 222 | COc1cc2ncnc(N3CCN(C(=O)Nc4ccc(OC(C)C)cc4)CC3)c2cc1OC |

| melting point [°C] | Structure (SMILES) |
| --- | --- |
| 233 to 235 | O=C1NC(=O)C(=Cc2cccc(OCc3ccccc3)c2)S1 |
| 159 to 161 | O=C(NC[C@H]1CN(c2ccc(C3C=CS(=O)(=O)CC3)cc2)C(=O)O1)C(Cl)Cl (stereo not given in full) |
| 266 to 270 | O=C(O)c1ccccc1Nc1ccc([N+](=O)[O-])cc1[N+](=O)[O-] |
| 130 to 132 | CCCCC(=O)c1c(-c2ccc3cc(OCC(=O)O)ccc3c2)oc2ccccc12 |
| 237 | COc1ccccc1-n1c(CSc2ncnc3[nH]cnc23)nc2cccc(Cl)c2c1=O |
| 115 | COc1cccc(NC(=O)C(F)(F)F)c1 |
| 91 to 95 | CCCc1c(OCc2ccc(C(=O)NCCCCc3cccnc3)cc2)ccc(C(C)=O)c1O |
| 100 to 102 | O=S(=O)(c1ccccc1)C(F)(F)C(O)c1ccc(Cl)cc1 (stereo not given) |
| 237 to 238 | COc1ccc(C(=O)Nc2ccc3c(c2)CCC3=O)cc1 |
| 219 to 220 | O=C(O)C(Cc1ccccc1)NCc1ccccc1 (stereo not given) |
| 129 to 131 | CCN1CCC(Cc2ccc(Cl)nc2)C1=C[N+](=O)[O-] (stereo not given) |
| 178 to 180 | N#Cc1ccc2c(c1)N(C1CC1)CNS2(=O)=O |
| 166 to 168 | NC(=O)c1ccc(OC2CCN(Cc3ccccc3)CC2)cc1 |
| 65 to 70 | CC(C#Cc1ccc(C(O)c2cc3ccccc3s2)s1)N(O)C(N)=O (stereo not given) |
| 240 | CCOC(=O)c1c(N2CCN(C=O)CC2)c2cc(C)ccc2n(-c2ccccc2)c1=O |
| 105 to 108 | Nc1sc2c(c1C(=O)c1ccc3ccccc3c1)CCN(Cc1ccc(Cl)cc1)C2 |
| 80 to 83 | CS(=O)(=O)c1ccc(C(CC2CCCC2)C(=O)Nc2ccc(Br)cn2)cc1[N+](=O)[O-] (stereo not given) |
| 268 | O=C(CCc1ccccc1)Nc1ccc2c(c1)C(=O)c1cc(NC(=O)CCc3ccccc3)ccc1C2=O |
| 203 | Cc1ccccc1-c1nc(N)ncc1-c1ccc(=O)n(C(C)C)n1 |
| 177 to 179 | COC(=O)C1(C(N)=O)C(C(N)=O)=NC(c2ccccc2)=C1N (stereo not given) |
| 100 to 102 | CCCCNC(=O)NS(=O)(=O)c1ccc(N2CCC(NC[C@H](O)c3ccc(O)c(NS(C)(=O)=O)c3)CC2)cc1 |
| 87.3 | CCOc1ccccc1C=[N+]([O-])C1CCCC1 |
| 210 to 212 | CC(=O)Nc1cccc2cc(S(=O)(=O)Nc3onc(C)c3C)ccc12 |

| melting point [°C] | Structure (SMILES) |
| --- | --- |
| 159 to 160 | CC(C)(CC1CCCC1)NC(=O)CN1C(=O)c2ccccc2C1=O |
| 90 to 95 | COc1ccc2c(c1)CC(NNc1ncnc3c1ncn3C1OC(CO)C(O)C1O)CO2 (stereo not given) |
| 103 to 104 | O=C(O)[C@H](Cc1cccc(OC(F)(F)C(F)F)c1)[C@@H](O)c1cccc(F)n1 (racemic) |
| 76 to 77 | Cc1oc(-c2ccccc2)nc1COc1ccc(C(C)CCCC#N)cc1 (stereo not given) |
| 130 to 133 | CS(=O)(=O)Nc1cc([C@@H](O)CNC2CCN(c3ccc(CCC(=O)O)cc3)CC2)ccc1O |
| 114 to 115 | Cc1nc(-c2cn(Cc3ccc(F)cc3)nn2)sc1C(=O)NCc1ccccc1 |
| 75 to 77 | CC(C)CC1NCCNC1=O (stereo not given) |
| 97 to 98 | BrC(Br)Cc1ccc(OCc2ccccc2)cc1 |
| 70 | O=C(Nc1ccccc1)C(CS)Cc1ccccc1 (stereo not given) |
| 146 to 147 | COc1ccc(C(=C/C=C/C(=O)NCCCOc2cccnc2)c2ccc(OC)cc2)cc1 |
| 99 to 101 | COc1ccc(-c2cc(Cl)c3ccc(OC)cc3n2)cc1 |
| > 330 | O=c1[nH]c2cc([N+](=O)[O-])ccc2c(O)c1-c1ccccc1 |
| 141 to 142 | C=C(N=[N+]=[N-])c1cn(COCCO)c(=O)[nH]c1=O |
| 247 to 248 | COc1ccc(CC2C(=O)N(Cc3ccccc3)c3ccccc3N(C(=O)CN3C(=O)c4ccccc4C3=O)C2C)cc1 (stereo not given) |
| 202 to 215 | NS(=O)(=O)c1ccc2c(c1)C(=O)C1(CCOC1=O)O2 (stereo not given) |
| 168 | CNC(=O)C(C)CCn1c(COc2ccc(Cl)cc2)nc2c(C)cccc21 (stereo not given) |
| 104 to 106 | COc1nc(C(F)(F)F)c(F)c(=O)n1-c1cc(C(=O)OC(C)C)c(Cl)cc1F |
| 135 to 137 | COc1ccc(S(=O)c2ccccc2)cc1[N+](=O)[O-] (stereo not given) |
| 229 | CCOCC(=O)OCC(=O)C1(O)CCC2C3CC(C)C4=CC(=O)C=CC4(C)C3C(O)CC21C (stereo not given) |
| 137 to 139 | CSc1nc(=O)n(C2CCCCC2)c(=O)n1C |
| 175 to 177 | CN1c2ccccc2N(C(=O)CN2CCCC2)c2ccccc2S1(=O)=O |
| 79 to 81 | CC#CC(C)(C)NC(=O)C(Br)CC (stereo not given) |
| 184 to 186 | CN(c1ccc(S(C)(=O)=O)cc1)S(=O)(=O)c1cccc(NC(=O)c2ccc(S(C)=O)cc2)c1 (stereo not given) |

| melting point [°C] | Structure (SMILES) |
| --- | --- |
| 285 to 286 | CS(=O)c1ccc(-c2cnn3c(O)ncnc23)cc1 (stereo not given) |
| 143 to 145 | COC(=O)c1cccc2nc(OCC(F)(F)F)n(Cc3ccc(-c4ccccc4C#N)cc3)c12 |
| 124 to 125 | O=C(O)c1coc(Cl)c1 |
| 136 to 137 | CCC(CC)(CC(=O)Nc1cccc(/C=C/c2cccc(CCCCCCc3ccc(OCCC(C)C)cc3)n2)c1)C(=O)O |
| 185 to 188 | FC(F)c1nc2ccccc2n1-c1nc(NCc2ccccc2)nc(N2CCOCC2)n1 |
| 190 to 195 | CN(C)c1snc2c1c(N)nc(=O)n2Cc1ccccc1 |
| 195 to 196 | CC(C)(C)NCC(O)c1ccc(O)c(NC=O)c1 (stereo not given) |
| 165 to 166 | O=C1C(=O)c2ccccc2C2=C1SCC1(CCN(C(=O)c3cccc(C(F)(F)F)c3)CC1)O2 |
| 56 to 57 | CCCCCCCCC(C)C(=O)NCl (stereo not given) |
| 138 to 140 | COC(=O)C=Cc1ccc2[nH]ccc2c1 |
| 173 to 175 | Cc1nc(N2CCN(Cc3ccc(F)cc3)C2=O)sc1C(=O)NCc1cnn(C)c1 |
| 209 to 212 | CC(C)(C)C1CC(CCC(=O)O)(CCC(=O)O)C(=O)C(CCC(=O)O)(CCC(=O)O)C1 |
| 75 to 76 | CCOC(=O)c1sc(I)nc1C(F)(F)F |
| 184 to 185 | COc1cc(Cl)c([N+](=O)[O-])cc1C(=O)O |
| 143 | O=C(C=CCN1CCOCC1)Nc1cc2c(Nc3ccc(F)c(Cl)c3)ncnc2cc1OC1CCCC1 |
| 238 | O=C(Oc1ccc2c(OC(=O)c3ccc(O)c(Cl)c3)c3ccccc3cc2c1OC(=O)c1ccc(O)c(Cl)c1)c1ccc(O)c(Cl)c1 |
| 160 to 162 | Nc1ccc(SCCn2cnnc2)cc1 |
| 217 to 220 | O=C(Nc1ccc2cc(CN3CCCC3)cnc2c1)c1ccc(-c2ccc(Cl)cc2)cc1 |
| 96 | CCOC(=O)NC(=S)OCc1ccccc1 |
| 96 to 97 | COC1C(OC(=O)N2CCOCC2)CCC2(CO2)C1C1(C)OC1CCOCc1ccccc1 (stereo not given) |
| 103 to 105 | Cc1cc2c(cc1Br)C(C)(C)C=CC2(C)C |
| 155 | CCCCCC(=O)OCC(=O)C1C(C)CC2C3=C(C(O)CC21C)C1(C)C=CC(=O)C=C1C(F)C3 (stereo not given) |
| 223 to 225 | COc1cccn(C2c3cc(S(=O)(=O)C(F)(F)F)ccc3OC(C)(C)C2O)c1=O (stereo not given) |

| Structure (SMILES) | melting point [°C] |
| --- | --- |
| Cc1ccc(S(=O)(=O)N=[N+]=[N-])cc1 | 79 to 82.5 |
| C1=C(c2csc3ccccc23)CCN(Cc2ccccc2)C1 | 90 |
| CN(C)C1CCc2[nH]c3c(C#N)cccc3c2C1 (stereo not given) | 177 to 179 |
| OCc1cn2c(n1)CN=C(c1ccccn1)c1cc(Br)ccc1-2 | 176 to 178 |
| [N-]=[N+]=C1C(=O)Nc2cccc(Cl)c21 | 214 to 215 |
| CN1C(=O)CN2CC(CCl)OC2(c2ccccc2)c2cc(Cl)ccc21 (stereo not given) | 140 to 142 |
| Cc1cccc(NC(=O)NC2N=C(C3CCCCC3)c3cccc(C)c3N(C)C2=O)c1 (stereo not given) | 196 to 198 |
| CCc1cc2c3c(ccc2[nH]1)OCC(CN1CC=C(c2c[nH]c4ccccc24)CC1)O3 (stereo not given) | 175 to 177 |

Reference: a melting point compilation (Tetko et al.; mined from patent text by program, amines drawn as free bases though some values may be those of a salt)
